Assay results: patent US20130184222A1, “[…] ACTIVE COMPOSITIONS AND THEIR METHODS OF USE” (AGIOS PHARMACEUTICALS, INC, priority 2010, published 2013)

Assays:
IDH1 R132H = IDH1 R132H (Homo sapiens, UniProt O75874, R132H); experiment: In vitro assay for IDH1 R132H inhibitors (NADPH/aKG, resazurin detection); type: biochemical; details: Table 4B; 0.2 μg/ml IDH1 R132H, 50 minutes at room temperature; read-out: IC50, IDH1 R132H Inhibition
Summary of the method: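 Reaction ran 50 min at room temperature in Tris pH 7.5 buffer with 150 mM NaCl, 10 mM MgCl2 and 0.03% BSA. Mix concentrations were 0.2 μg/ml mutant enzyme, 8 uM NADPH and 2 mM aKG. Detection added 30 μM resazurin, with resorufin fluorescence (Ex544/Em590) measured 5 min later.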

HT1080 cells = experiment: Cellular assay: inhibition of 2-HG production in HT1080 cells (LC-MS, 48 hours); type: cell-based; details: Homo sapiens, HT-1080, 2-HG in media by LC-MS
Protocol: (§1) Cells (HT1080 or U87MG) were grown in T125 flasks in DMEM containing 10% FBS, 1× penicillin/streptomycin and 500 ug/mL G418 (present in U87MG cells only). They were harvested by trypsin and seeded into 96 well white bottom plates at a density of 5000 cell/well in 100 ul/well in DMEM with 10% FBS. No cells were placed in columns 1 and 12. Cells were incubated overnight at 37° C. in 5% CO2. The next day test compounds were made up at 2× the final concentration and 100 ul were added to each cell well. The final concentration of DMSO was 0.2% and the DMSO control wells were plated in row G. The plates were then placed in the incubator for 48 hours. At 48 hours, 100 ul of media was removed from each well and analyzed by LC-MS for 2-HG concentrations. The cell plate was placed back in the incubator for another 24 hours. At 72 hours post compound addition, 10 mL/plate of Promega Cell Titer Glo reagent was thawed and mixed. The cell plate was removed from the incubator and allowed to equilibrate to room temperature. Then 100 ul of Promega Cell Titer Glo reagent was added to each well of media. The cell plate was then placed on an orbital shaker for 10 minutes and then allowed to sit at room temperature for 20 minutes. The plate was then read for luminescence with an integration time of 500 ms.

U87MG cells = experiment: Cellular assay: inhibition of 2-HG production in U87MG cells (LC-MS, 48 hours); type: cell-based; details: Homo sapiens, U-87 MG, 2-HG in media by LC-MS
Protocol: as §1

Sequence of IDH1 R132H (O75874 whole entry R132H): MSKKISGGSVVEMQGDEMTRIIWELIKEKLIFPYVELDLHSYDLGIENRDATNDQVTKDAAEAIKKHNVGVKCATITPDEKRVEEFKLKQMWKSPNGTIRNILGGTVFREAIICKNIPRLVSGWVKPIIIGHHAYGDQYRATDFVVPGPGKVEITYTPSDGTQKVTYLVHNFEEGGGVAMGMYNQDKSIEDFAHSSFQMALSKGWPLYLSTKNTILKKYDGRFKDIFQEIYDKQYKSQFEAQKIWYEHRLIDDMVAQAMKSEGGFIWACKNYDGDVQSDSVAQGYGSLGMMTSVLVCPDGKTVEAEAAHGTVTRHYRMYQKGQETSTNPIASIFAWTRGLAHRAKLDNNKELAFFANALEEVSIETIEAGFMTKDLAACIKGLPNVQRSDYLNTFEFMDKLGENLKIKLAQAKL

Structure (SMILES) | IC50 (IDH1 R132H) | IC50 (HT1080 cells) | IC50 (U87MG cells)
Cc1ccccc1C(C(=O)NC1CCN(C(=O)OC(C)(C)C)C1)N(C(=O)Cc1cccs1)c1cccc(F)c1 (stereo not drawn) [Compound 190] | 100 to 1000 nM | 1000 to 5000 nM | 1000 to 5000 nM
Cc1ccccc1C(C(=O)NC1CCCCC1)N(C(=O)CN[C@H]1CCOC1)c1cccc(F)c1 (stereo partly drawn) [Compound 191] | 100 to 1000 nM | 1000 to 5000 nM | 1000 to 5000 nM
Cc1ccccc1C(C(=O)NC1CCCCC1)N(C(=O)CNCCc1ccccn1)c1cccc(F)c1 (stereo not drawn) [Compound 192] | 100 to 1000 nM | 1000 to 5000 nM | 1000 to 5000 nM
Cc1ccccc1C(C(=O)NC1CCCCC1)N(C(=O)CNCCc1cccnc1)c1cccc(F)c1 (stereo not drawn) [Compound 193] | 100 to 1000 nM | 250 to 1000 nM | 1000 to 5000 nM
Cc1ccccc1C(C(=O)NC1CCOCC1)N(C(=O)CN1CCc2ccccc21)c1cccc(F)c1 (stereo not drawn) [Compound 195] | 100 to 1000 nM | 250 to 1000 nM | 1000 to 5000 nM
Cc1ccccc1C(C(=O)NC1CCCCC1)N(C(=O)COc1cccnc1)c1cccc(F)c1 (stereo not drawn) [Compound 197] | ≤ 100 nM | 250 to 1000 nM | 250 to 1000 nM
Cc1ccccc1C(C(=O)NC1CCCCC1)N(C(=O)COc1ccccn1)c1cccc(F)c1 (stereo not drawn) [Compound 198] | ≤ 100 nM | ≤ 250 nM | 250 to 1000 nM
Cc1ccccc1C(C(=O)NC1CCCCC1)N(C(=O)COc1ccncc1)c1cccc(F)c1 (stereo not drawn) [Compound 199] | 100 to 1000 nM | 1000 to 5000 nM | 1000 to 5000 nM
Cc1ccccc1C(C(=O)NC1CCCOC1)N(C(=O)Cc1cccs1)c1cccc(F)c1 (stereo not drawn) [Compound 200] | 100 to 1000 nM | 1000 to 5000 nM | 1000 to 5000 nM
Cc1ccccc1C(C(=O)NC1CCCCC1)N(C(=O)CNc1ccc(F)cc1)c1cccc(F)c1 (stereo not drawn) [Compound 201] | ≤ 100 nM | 1000 to 5000 nM | 1000 to 5000 nM
Cc1ccccc1C(C(=O)NC1CCCCC1)N(C(=O)CN1CCOc2ccccc21)c1cccc(F)c1 (stereo not drawn) [Compound 202] | ≤ 100 nM | ≤ 250 nM | 250 to 1000 nM
Cc1ccccc1C(C(=O)NC1CCCCC1)N(C(=O)Cc1c[nH]c2ncccc12)c1cccc(F)c1 (stereo not drawn) [Compound 203] | ≤ 100 nM | ≤ 250 nM | ≤ 250 nM
Cc1ccccc1C(C(=O)NC1CCCCC1)N(Cc1cccs1)C(=O)Cn1ccnc1 (stereo not drawn) [Compound 204, N-cyclohexyl-2-[(2-imidazol-1-yl-acetyl)-thiophen-2-ylmethyl-amino]-2-o-tolyl-acetamide] | 100 to 1000 nM | 1000 to 5000 nM | 250 to 1000 nM
Cc1ccccc1C(C(=O)NC1CCCCC1)N(Cc1nccs1)C(=O)Cn1nnc2ccccc21 (stereo not drawn) [Compound 205] | 100 to 1000 nM | 1000 to 5000 nM | 1000 to 5000 nM
Cc1ccccc1C(C(=O)NC1CCCCC1)N(Cc1cccs1)C(=O)CN1Cc2cccnc2C1 (stereo not drawn) [Compound 206] | 100 to 1000 nM | 1000 to 5000 nM | 1000 to 5000 nM
COC(=O)N1CCN(CC(=O)N(Cc2cccs2)C(C(=O)NC2CCCCC2)c2ccccc2C)CC1 (stereo not drawn) [Compound 208] | 100 to 1000 nM | 1000 to 5000 nM | 1000 to 5000 nM
Cc1ccccc1C(C(=O)NC1CCCCC1)N(C(=O)CN1Cc2cccnc2C1)c1cccc(F)c1 (stereo not drawn) [Compound 209] | 100 to 1000 nM | ≤ 250 nM | 250 to 1000 nM
COc1ccc(NCC(=O)N(c2cccc(F)c2)C(C(=O)NC2CCCCC2)c2ccccc2C)cc1 (stereo not drawn) [Compound 210] | ≤ 100 nM | 1000 to 5000 nM | 1000 to 5000 nM
Cc1ccccc1C(C(=O)NCC1CCCCC1)N(C(=O)Cc1cccs1)c1cccc(F)c1 (stereo not drawn) [Compound 211] | 100 to 1000 nM | 1000 to 5000 nM | 1000 to 5000 nM

Structure (SMILES) | IC50 (IDH1 R132H) | IC50 (HT1080 cells) | IC50 (U87MG cells)
CC(=O)Oc1ccc(CC(=O)N(c2cccc(F)c2)C(C(=O)NC2CCCCC2)c2ccccc2C)cc1 (stereo not drawn) [Compound 212] | ≤ 100 nM | ≤ 250 nM | ≤ 250 nM
Cc1ccccc1C(C(=O)NC1CCCCC1)N(Cc1cccs1)C(=O)Cc1c[nH]c2ncccc12 (stereo not drawn) [Compound 213] | ≤ 100 nM | 250 to 1000 nM | 250 to 1000 nM
CC(=O)Oc1ccc(C(=O)N(c2cccc(F)c2)C(C(=O)NC2CCCCC2)c2ccccc2C)cc1 (stereo not drawn) [Compound 215, Acetic acid 4-[(cyclohexylcarbamoyl-o-tolyl-methyl)-(3-fluoro-phenyl)-carbamoyl]-phenyl ester] | 100 to 1000 nM | 250 to 1000 nM | 250 to 1000 nM
Cc1ccccc1C(C(=O)NC1CCCCC1)N(C(=O)c1ccc(O)cc1)c1cccc(F)c1 (stereo not drawn) [Compound 216] | 100 to 1000 nM | 1000 to 5000 nM | 250 to 1000 nM
Cc1ccccc1C(C(=O)NC1CCCCC1)N(C(=O)Cc1ccc(O)cc1)c1cccc(F)c1 (stereo not drawn) [Compound 217, N-Cyclohexyl-2-{(3-fluoro-phenyl)-[2-(4-hydroxy-phenyl)-acetyl]-amino}-2-o-tolyl-acetamide] | ≤ 100 nM | ≤ 250 nM | ≤ 250 nM
COc1ccccc1NCC(=O)N(c1cccc(F)c1)C(C(=O)NC1CCCCC1)c1ccccc1C (stereo not drawn) [Compound 218] | ≤ 100 nM | 250 to 1000 nM | 250 to 1000 nM
COc1ccc(CNCC(=O)N(c2cccc(F)c2)C(C(=O)NC2CCCCC2)c2ccccc2C)cc1 (stereo not drawn) [Compound 219] | 100 to 1000 nM | 1000 to 5000 nM | 1000 to 5000 nM
COc1ccccc1CNCC(=O)N(c1cccc(F)c1)C(C(=O)NC1CCCCC1)c1ccccc1C (stereo not drawn) [Compound 220] | 100 to 1000 nM | 1000 to 5000 nM | 1000 to 5000 nM
COc1cccc(CNCC(=O)N(c2cccc(F)c2)C(C(=O)NC2CCCCC2)c2ccccc2C)c1 (stereo not drawn) [Compound 221] | 100 to 1000 nM | 1000 to 5000 nM | 1000 to 5000 nM
Cc1ccccc1C(C(=O)NC1CCCCC1)N(C(=O)COCc1ccccc1F)c1cccc(F)c1 (stereo not drawn) [Compound 222] | 100 to 1000 nM | 250 to 1000 nM | 1000 to 5000 nM
Cc1ccccc1C(C(=O)NC1CCCCC1)N(C(=O)Cn1ccnc1C)c1cccc(-c2cnn(C)c2)c1 (stereo not drawn) [Compound 223] | 100 to 1000 nM | 250 to 1000 nM | ≤ 250 nM
Cc1ccccc1C(C(=O)NC1CCCCC1)N(C(=O)Cn1c(C)nc2ccccc21)c1ccn(C)n1 (stereo not drawn) [Compound 224] | 100 to 1000 nM | 250 to 1000 nM | 250 to 1000 nM
Cc1ccccc1C(C(=O)NC1CCCCC1)N(C(=O)Cn1ccnc1C)c1cccc(NC(=O)OC(C)(C)C)c1 (stereo not drawn) [Compound 225] | 100 to 1000 nM | 1000 to 5000 nM | ≤ 250 nM
Cc1ccccc1C(C(=O)NC1CCCCC1)N(C(=O)Cn1ccnc1C)c1cccc(N)c1 (stereo not drawn) [Compound 226] | 100 to 1000 nM | 1000 to 5000 nM | ≤ 250 nM
Cc1ccccc1C(C(=O)NC1CCCCC1)N(C(=O)CNc1ccc(C#N)cc1)c1cccc(F)c1 (stereo not drawn) [Compound 227] | ≤ 100 nM | ≤ 250 nM | ≤ 250 nM
Cc1ccccc1C(C(=O)NC1CCCCC1)N(Cc1cccs1)C(=O)CNc1ccc(C#N)cc1 (stereo not drawn) [Compound 228] | ≤ 100 nM | 250 to 1000 nM | 250 to 1000 nM
Cc1ccccc1C(C(=O)NC1CCCCC1)N(C(=O)COCc1ccncc1)c1cccc(F)c1 (stereo not drawn) [Compound 229] | 100 to 1000 nM | 250 to 1000 nM | 1000 to 5000 nM
Cc1ccccc1C(C(=O)NC1CCCCC1)N(C(=O)COC1CCCC1)c1cccc(F)c1 (stereo not drawn) [Compound 230] | 100 to 1000 nM | 1000 to 5000 nM | 1000 to 5000 nM
